Test results: patent US20200261497A1, “Iodinated Contract Medium for Use as a Medicament for Thyroid Radioprotection” (priority 2017, published 2020)

Legend:
[1] = system: HT29-NIS cells; test: 125I iodide uptake in HT29-NIS cells; type: cell-based, human; details: one hour incubation with 125I, Iomeron 100 μL corresponding to 70 mg of iomeprol
Procedure: (§1) FIG. 2: Effect of Iomeron on iodide uptake of established cell lines expressing NIS. HT29-NIS (A) or PCCL3 (B) cells were incubated for one hour with ^125I in the presence of an equal volume of either saline, Iomeron (100 μL corresponding to 70 mg of iomeprol), NaI or perchlorate. Cells were then rapidly washed with saline buffer and lysed. Aliquots of lysates were counted in a y counter. The results are expressed as percentage of uptake in the control condition. The data presented are the mean±SEM of triplicates and are representative of three independent experiments. n.s: non statistically significant.
(§2) The human colorectal cancer cell line HT-29 (HTB-38, ATCC) was transfected with pcDNA3.1-mNIS (murine NIS) (Perron et al., 2001) using the FuGENE 6 reagent (Roche) according to the manufacturer's instructions. Stable clones were selected by addition of 1 mg/mL geneticin (G418) to the medium 3 days after transfection. One clone with high functional expression of NIS was selected (Richard-Fiardo et al., 2012). The rat follicular thyroid cell line PCCL3 was obtained from Dr. A. De La Vieja (Madrid, Spain) and cultured as previously described (Leoni et al., 2011). Measurement of in vitro iodide uptake was performed as previously described (Groot-Wassink et al., 2002).
(§3) We next examined whether iomeprol and its contaminating free iodide could affect iodide uptake in NIS-expressing cell lines. HT29-NIS (a human colorectal carcinoma cell line expressing NIS) (FIG. 2A) or PCCL3 (a rat follicular thyroid cell line) (FIG. 2B) cells were incubated with ^125I in the presence of either saline buffer, Iomeron, NaI, or perchlorate (NaClO4). After one hour, cells were washed and cellular ^125I content was determined.

[2] = system: PCCL3 cells; test: 125I iodide uptake in PCCL3 cells; type: cell-based, rat; details: one hour incubation with 125I, Iomeron 100 μL corresponding to 70 mg of iomeprol
Procedure: as §1, §2, §3

[3] = system: NIS; test: NIS expression in mouse salivary glands (immunohistochemistry, Western blot); type: in vivo; details: four days after intravenous injection
Procedure: (§4) FIG. 6: Analysis of NIS expression in the thyroid and salivary glands in response to Iomeron. Saline buffer (A, C) or Iomeron (B, D) were administered intravenously. Four days later, animals were culled and NIS expression in the thyroid glands (A, B) and salivary glands (C, D) were analyzed by immunohistochemistry (n=3 per group). Thyroids and salivary glands were also processed for Western blot analysis of NIS and β-actin expression (n=2 per group).
(§5) Thyroid membrane proteins were subjected to SDS-PAGE electrophoresis as previously described (Cambien et al., 2014). Western blotting was performed with antibody 25 anti-mouse NIS, an affinity-purified rabbit immunoreactive serum fraction, or with an anti-β-actin antibody (Sigma).
(§6) After culling the animals, thyroids and salivary glands were dissected, paraffin embedded, and cut into 4-μm-thick sections. The paraffin was then removed and the sections were rehydrated and subjected to an antigen retrieval treatment with a solution of citrate buffer, pH 6, using an automate (PT Link, Dako). Immunostaining was performed following a standard protocol (Dako EnVision™ FLEX using an automated immunostainer, Autostainer, Dako). Endogenous peroxide was blocked using the EnVision™ FLEX Peroxidase-Blocking Reagent. […]

[4] = system: human salivary glands; test: 99mTcO4- scintigraphy of the human salivary glands; type: in vivo; details: patient, intravenous injection two weeks before scintigraphy
Procedure: (§7) FIG. 4: Effect of Iomeron on the uptake of ^99m-pertechnetate by the human thyroid and salivary glands. Scintigraphies of a naïve patient (A) or a patient who has been administered with Iomeron two weeks before the scintigraphy. SG: salivary glands; T: thyroid; R: right; L: left.
(§8) A “naïve” patient and a patient who had received an intravenous injection of Iomeron 350 two weeks before scintigraphy were involved. On the day of the scintigraphy, patients were injected intravenously with an activity of 1 MBq/kg and 600 s scans was performed 15 min later.

[5] = system: mouse salivary glands; test: 99m-pertechnetate uptake by the mouse salivary glands (microSPECT/CT); type: in vivo
Procedure: (§9) FIG. 3: Effect of Iomeron on the uptake of ^99m-pertechnetate by the mouse thyroid and salivary glands. SPECT/CT imaging of mice administered 20 MBq ^99m-pertechnetate was performed (day 0). At the end of the scan, Iomeron was administered intravenously. One, four, eight, twelve and eighteen days later, animals were injected with 20 MBq ^99m-pertechnetate and new scans were performed. The data presented represent the percentage of radiotracer injected taken up by the thyroid (A) and salivary glands (B). (n=3 per condition). ***p<0.001; n.s: non statistically significant.
FIG. 5: Effect of KI on the uptake of ^99m-pertechnetate by the mouse thyroid and salivary glands. […]
^99mTc pertechnetate (^99mTcO4^−) was obtained from a freshly eluted ^99Mo/^99mTc generator. […] Thyroid and salivary gland tracer uptake was measured at different times using a dedicated microSPECT/CT scanner (eXplore speCZT CT120, GE) under gas anesthesia (air and 1-2% isoflurane) in an air-warmed imaging chamber (Minerve, Esternay, France) to maintain body temperature at 37° C. […] Reconstructed images were analyzed and quantified using AMIDE software (Loening and Gambhir, 2003). Tracer activities in the various relevant organs were calculated. […] Uptakes were expressed as percentages of the injected dose (% ID) after decay correction (Cambien et al., 2014).

[6] = system: NIS; test: NIS expression in mouse thyroid glands (immunohistochemistry, Western blot); type: in vivo; details: four days after intravenous injection
Procedure: as §4, §5, §6

[7] = system: human thyroid; test: 99mTcO4- scintigraphy of the human thyroid; type: in vivo; details: patient, intravenous injection two weeks before scintigraphy
Procedure: as §7, §8

[8] = system: mouse thyroid; test: 99m-pertechnetate uptake by the mouse thyroid (microSPECT/CT); type: in vivo
Procedure: as §9
FIG. 5: Effect of KI on the uptake of ^99m-pertechnetate by the mouse thyroid and salivary glands. SPECT/CT imaging of mice administered 20 MBq ^99m-pertechnetate was performed (day 0). Animals were injected intraperitoneally with KI (9 mg in 180 μL) and scanned 30 minutes later. Twenty-four hours later, animals were injected with 20 MBq ^99m-pertechnetate and new scans were performed. The data presented represent the percentage of radiotracer injected taken up by the thyroid (A) and salivary glands (B). (n=3 per condition). *p<0.05; ***p<0.001.
FIG. 7: Evaluation of the effect of different modes of administration of Iomeron on the uptake of ^99m-pertechnetate by the thyroid. SPECT/CT imaging of mice administered 20 MBq ^99m-pertechnetate was performed (day 0). At the end of the scan, intravenous, sublingual, enteral, and intraperitoneal administrations of Iomeron were performed. Four days later, animals were injected with 20 MBq ^99m-pertechnetate and new scans were performed. The data presented represent the percentage of radiotracer injected taken up by the thyroid (A) and salivary glands (B). (n=2 per condition). ***p<0.001.
FIG. 9: Effect of Telebrix, Optiray and Omnipaque on the uptake of ^99mpertechnetate by the mouse thyroid. SPECT/CT imaging of mice administered 20 MBq ^99mpertechnetate was performed (day 0). At the end of the scan, mice received a sublingual administration […] of Telebrix or Optiray, or Omnipaque. Two days later, animals were injected with 20 MBq ^99mpertechnetate and new scans were performed. The data presented represent the percentage of radiotracer injected taken up by the thyroid. (n=3 per condition). ***p<0.001; n.s: non statistically significant. % IA: percentage of the injected activity.
Eight-week-old female C57B/6J mice were obtained from Janvier (Le Genest Saint Isle, France). Animal housing and procedures were conducted according to French Agriculture Ministry guidelines and were approved by the local ethics committee (Ciepal NCE/2014-211).
Intravenous and intraperitoneal administration was performed by injecting 100 μL Iomeron diluted 50/50 (vol/vol) with phosphate-buffered saline (corresponding to 18 mg iomeprol). Enteral administration was performed by gavage of 100 μL Iomeron diluted 50/50 (vol/vol) with phosphate-buffered saline (corresponding to 18 mg iomeprol). Sublingual administration was performed on anesthetized mice by five sublingual depositions of 5 μL Iomeron, with a delay of 10 minutes between two administrations. This procedure led to the administration of […] iomeprol.
^99mTc pertechnetate (^99mTcO4^−) was obtained from a freshly eluted ^99Mo/^99mTc generator. Animals were administered intraperitoneally with activities of 20 MBq ^99mTcO4^−. Thyroid and salivary gland tracer uptake was measured at different times using a dedicated microSPECT/CT scanner (eXplore speCZT CT120, GE) under gas anesthesia (air and 1-2% isoflurane) in an air-warmed imaging chamber (Minerve, Esternay, France) to maintain body temperature at 37° C. The SPECT scanner uses a stationary full ring of CZT detectors and a rotating 7-pinhole (1 mm opening) collimator. A total of 350 projections were acquired over 360° in 8 minutes. Images were reconstructed using the manufacturer's 3D-OSEM algorithm (5 subsets and 11 iterations), which incorporates the system's collimator-detector response function and scatter correction. […]

[9] = system: thyroid; details: KI tablets, prevention of 131-I entry into the thyroid; cited from earlier work
[10] = after intravenous administration, scans on days 1, 4, 8, 12, 18

SMILES: [O-][Cl+3]([O-])([O-])O [perchlorate]
- iodide uptake (125I) [1]: inhibited iodide uptake
- iodide uptake (125I) [2]: inhibited iodide uptake

SMILES: CN(C(=O)CO)c1c(I)c(C(=O)NCC(O)CO)c(I)c(C(=O)NCC(O)CO)c1I (stereo not drawn) [Iomeron, iomeprol]
- NIS expression in ductal cells of the salivary glands, immunohistological analysis [3]: detectable
- NIS expression in the salivary glands, western blot ([3]; compared with controls): no significant difference
- pertechnetate uptake in the salivary glands [4]: radiotracer uptake in the salivary glands
- iodide uptake (125I) [1]: failed to affect this uptake significantly
- iodide uptake (125I) [2]: failed to affect this uptake significantly
- uptake by the salivary glands ([5]; after intravenous administration, same animals): failed to affect iodide uptake
- uptake to the salivary glands ([5]; intravenous, sublingual, enteral or intraperitoneal administration, four days later): not affected in any condition
- NIS expression in thyroids, immunohistological analysis [6]: hardly detectable
- NIS expression in the thyroid glands, western blot ([6]; compared with controls): dramatic decrease
- pertechnetate uptake in the thyroid [7]: lack of fixation in the thyroid region
- radiotracer uptake by the thyroid ([8]; 24 hours after intravenous administration): dramatic reduction
- duration of low thyroid uptake capacity [8, 10]: remained low for eight days
- recovery of thyroid uptake capacity [8, 10]: recovery was observed from day 12
- radiotracer uptake by the thyroid ([8]; enteral administration (gavage, 18 mg iomeprol), four days later): neither enteral nor intraperitoneal administration affected radiotracer uptake
- radiotracer uptake by the thyroid ([8]; intraperitoneal administration (18 mg iomeprol), four days later): neither enteral nor intraperitoneal administration affected radiotracer uptake
- radiotracer uptake by the thyroid ([8]; intravenous administration (18 mg iomeprol), four days later): marked reduction
- radiotracer uptake by the thyroid ([8]; sublingual administration (9 mg iomeprol), four days later): marked reduction

SMILES: [I-].[Na+] [NaI]
- iodide uptake (125I) [1]: inhibited iodide uptake
- iodide uptake (125I) [2]: inhibited iodide uptake

SMILES: [I-].[K+] [KI, potassium iodide]
- duration of the protective effect [9]: 24 h
- ability of the thyroid to take up pertechnetate ([8]; 30 minutes after intraperitoneal injection (9 mg in 180 μL)): reduced
- ability of the thyroid to take up pertechnetate ([8]; 24 hours after intraperitoneal injection (9 mg in 180 μL)): recovered
